The test system of one assay is NCI-H23. The experiment in a line: MECP in cancer cell line. The note with it: Homo sapiens. Format: cell-based. An outline of the steps:
(§1)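 Cells grown in DMEM with 5% FBS at 37° C, 5% CO2, then treated at 1 nM to 30 μM. Imaging at 24, 48 or 72 h scored mitotic arrest or DNA-content change; hits show transient mitotic-index rise at 24 h and polyploid accumulation at 48 h; values binned A (≤1.0 μM) to D (>30.0 μM).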

Assay [1] concerns cervical cancer cell line Hela. As to the kind of experiment: Soft agar colony formation assay. It counts as cell-based, human. The text has this:
Measuring the ability of cells to grow in soft agar has been popularly believed as the gold standard assay for cellular transformation in vitro. In the Soft Agar Assay, cells grow from single cells to cell colonies in a semi-solid agar solution that keeps them away from the solid surface and allows growth in an anchorage-independent way.
The anchorage-independent growth of cells is one of the hallmarks of cancer cells. Normal epithelial cells are supported by basement membranes that provide survival and proliferative signals while undergo a type of apoptosis called anoikis when lose their attachment to the extracellular matrix. Cancer cells, in contrast, evade detachment-induced apoptosis, leading to uncontrolled proliferation and metastasis. The Soft Agar Colony Formation Assay allows testing of the therapeutic efficacy of compounds against anchorage-independent 3D growth of cancer cells in vin. The assay was performed in 6-well plates with two layers of agar. For the first, 0.75% agar in DMEM medium was melted in a microwave oven and poured to form a bottom layer. Once solidified, 10-100K cells in 1 ml of DMEM containing 0.35% agar was added to form the top layer, which was later covered with 0.5 ml of DMEM. Cell culture medium was changed once every two days until colonies were ready to photograph. We test the antitumor activity of select compounds in soft agar colony formation assays. […] The suppression of growth of these three cancer cell lines in 3D culture is consistent with the potent impact of these compounds on cellular proliferation in 2D culture.

The subject of assay [2] is A549. The experiment in a line: MECP in cancer cell line. It counts as cell-based. The note with it: Homo sapiens. The gist of the method: as §1
In assay [3] the test system is A549. As to the kind of experiment: MTT assay of cellular proliferation. It counts as cell-based. The note with it: Homo sapiens, 50% inhibition of cellular proliferation. The gist of the method:
(§2)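 MTT viability readout, formazan OD 570 nm after 3-4 h dye incubation. Cells seeded 15-24 h to 20-30% confluence, dosed 1 nM-30 μM. DMEM/5% FBS, 37 °C, 5% CO2. EC50 = concentration giving 50% proliferation inhibition.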
On the technique in general: Tetrazolium assays rely on reduction of a dye to a coloured formazan, in cell work by metabolically active cells.

The subject of another assay is Calu-6. As to the kind of experiment: MTT assay of cellular proliferation. It counts as cell-based. The note with it: Homo sapiens; Calu-6, MTT, 50% inhibition of cellular proliferation. An outline of the steps: as §2
A further assay concerns DU145. The experiment in a line: MTT assay of cellular proliferation. It counts as cell-based. The note with it: Homo sapiens, DU-145, 50% inhibition of cellular proliferation. The gist of the method: as §2
The next assay has as its system NCI-H2170. The experiment in a line: MTT assay of cellular proliferation. Format: cell-based. The note with it: Homo sapiens, 50% inhibition of cellular proliferation. An outline of the steps: as §2
The next assay relates to NCI-N87. As to the kind of experiment: MTT assay of cellular proliferation. Format: cell-based. The note with it: Homo sapiens, 50% inhibition of cellular proliferation. The gist of the method:
as §2

Another assay concerns SW480. The experiment in a line: MTT assay of cellular proliferation. It counts as cell-based. The settings on record: Homo sapiens, 50% inhibition of cellular proliferation. The gist of the method:
as §2

In turn, `COc1cc(OC)cc(Oc2ccnc3ccccc23)c1` [Compound 7, 4-(3,5-dimethoxyphenoxy)quinoline] yielded a minimal effective concentration in the assay with NCI-H23 of 0.001 to 1 µM. Also, the “anchorage-independent growth in soft agar” value (“anchorage-independent growth” for short) in [1] is recorded as “effectively suppressed the anchorage-independent growth”.
Consider `COC(=O)c1cc(OC)cc(Oc2ncnc3cc(OC)c(OC)cc23)c1` [Compound 29], for which the values for the minimal effective concentration with A549 [2] and with NCI-H23 were 1 to 10 µM and 0.001 to 1 µM, respectively. The EC50 in the assay with A549 [3] was above 30000 nM; with Calu-6 it was 1 to 1000 nM; in the assay with DU145, 1 to 1000 nM; in the assay on NCI-H2170, 1 to 1000 nM; in the assay with NCI-N87, 1 to 1000 nM; in the assay on SW480, 1000 to 10000 nM.
With `COC(=O)c1cc(OC)cc(Oc2ncnc3cc[nH]c23)c1` [Compound 34, methyl 3-((5H-pyrrolo[3,2-d]pyrimidin-4-yl)oxy)-5-methoxybenzoate], the minimal effective concentration in the assay on A549 [2] was in the range of 1 to 10 µM; in the assay on NCI-H23, 0.001 to 1 µM. Besides, the EC50 in the assay on A549 [3] is above 30000 nM; in the assay on Calu-6, 1 to 1000 nM; with DU145 it was 1 to 1000 nM; with NCI-H2170, 1 to 1000 nM; in the assay on NCI-N87, 1 to 1000 nM; in the assay with SW480, 1000 to 10000 nM.
Turning to `COC(=O)c1cc(Oc2ncnc3cc[nH]c23)cc(C(=O)OC)c1` [Compound 36, dimethyl 5-((5H-pyrrolo[3,2-d]pyrimidin-4-yl)oxy)isophthalate], the minimal effective concentration was 1 to 10 µM with A549 [2] and 0.001 to 1 µM with NCI-H23. Moreover, the EC50 was above 30000 nM with A549 [3]; 1 to 1000 nM in the assay with Calu-6; 1 to 1000 nM with DU145; 1 to 1000 nM with NCI-H2170; 1 to 1000 nM with NCI-N87. Also, the “anchorage-independent growth” value in [1] is listed as “effectively suppressed the anchorage-independent growth”.
In the case of `COC(=O)c1cc(OC)cc(Oc2ncnc3ccsc23)c1` [Compound 37, methyl 3-methoxy-5-(thieno[3,2-d]pyrimidin-4-yloxy)benzoate], the values for the minimal effective concentration in the assay with A549 [2] and in the assay on NCI-H23 were 1 to 10 µM and 0.001 to 1 µM, respectively. Besides, the EC50 in the assay on A549 [3] was above 30000 nM; in the assay on Calu-6, 1 to 1000 nM; in the assay on DU145 it was 1 to 1000 nM; in the assay on NCI-H2170, 1 to 1000 nM; in the assay with NCI-N87 it was 1 to 1000 nM; in the assay on SW480, 1 to 1000 nM.
`COC(=O)c1cc(Oc2ncnc3ccsc23)cc(C(=O)OC)c1` [Compound 39, dimethyl 5-(thieno[3,2-d]pyrimidin-4-yloxy)isophthalate]: the minimal effective concentration in the assay with A549 [2] lay in the range of 1 to 10 µM; in the assay with NCI-H23, 0.001 to 1 µM. The EC50 in the assay on A549 [3] is above 30000 nM; in the assay with Calu-6, 1 to 1000 nM; in the assay with DU145, 1 to 1000 nM; with NCI-H2170, 1000 to 10000 nM; in the assay on NCI-N87, 1 to 1000 nM. Besides, the “anchorage-independent growth” value in [1] was “effectively suppressed the anchorage-independent growth”.

For orientation: minimal effective concentration means the smallest amount tested that counted as effective. Higher therefore signals weaker potency. By EC50 is commonly meant the concentration at which the effect is half-maximal.

Values taken from patent US20240239806A1, “COMPOUNDS, COMPOSITIONS AND METHODS OF TREATING DISORDERS” (Chengdu Anticancer Bioscience, Ltd., priority 2021, published 2024).
